Assay results reported in publication PMC10648927, “Examining the activity of cefepime-taniborbactam against Burkholderia cepacia complex and Burkholderia gladioli isolated from cystic fibrosis patients in the United States” (Antimicrobial Agents and Chemotherapy, 2023).
In brackets after ≈: the same amount, converted by molar mass.

Assays:
Design in all cases: agar dilution MIC, growth inhibition of clinical Burkholderia isolates
[1] = test system: T1, B. cenocepacia AU0756; assay: microbe, parasite or virus in culture; conditions: Burkholderia cenocepacia, AU0756
T1 construct: AU0756
How it was run: (§1)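 MICs by agar dilution against Bcc and B. gladioli clinical isolates, interpreted with CLSI breakpoints where available; K. pneumoniae ATCC 700603 (SHV-18) and ATCC BAA-1705 (KPC) served as quality controls.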

[2] = test system: T2, B. cenocepacia AU17796; assay: microbe, parasite or virus in culture; conditions: Burkholderia cenocepacia, AU17796
T2 construct: AU17796
How it was run: as §1

[3] = test system: T3, B. cenocepacia AU19684; assay: microbe, parasite or virus in culture; conditions: Burkholderia cenocepacia, AU19684
T3 construct: AU19684
How it was run: as §1

[4] = test system: T4, B. cenocepacia AU21083; assay: microbe, parasite or virus in culture; conditions: Burkholderia cenocepacia, AU21083
T4 construct: AU21083
How it was run: as §1

[5] = test system: T5, B. cenocepacia AU29265; assay: microbe, parasite or virus in culture; conditions: Burkholderia cenocepacia, AU29265
T5 construct: AU29265
How it was run: as §1

[6] = test system: T6, B. cenocepacia AU9710; assay: microbe, parasite or virus in culture; conditions: Burkholderia cenocepacia, AU9710
T6 construct: AU9710
How it was run: as §1

[7] = test system: T7, B. cepacia AU15249; assay: microbe, parasite or virus in culture; conditions: Burkholderia cepacia, AU15249
T7 construct: AU15249
How it was run: as §1

[8] = test system: T8, B. cepacia AU22213; assay: microbe, parasite or virus in culture; conditions: Burkholderia cepacia, AU22213
T8 construct: AU22213
How it was run: as §1

[9] = test system: T9, B. dolosa AU29021; assay: microbe, parasite or virus in culture; conditions: Burkholderia dolosa, AU29021
T9 construct: AU29021
How it was run: as §1

[10] = test system: T10, B. gladioli AU28659; assay: organism not typed
T10 construct: AU28659
How it was run: as §1

[11] = test system: T11, B. multivorans AU10897; assay: microbe, parasite or virus in culture; conditions: Burkholderia multivorans, AU10897
T11 construct: AU10897
How it was run: as §1

[12] = test system: T12, B. multivorans AU14328; assay: microbe, parasite or virus in culture; conditions: Burkholderia multivorans, AU14328
T12 construct: AU14328
How it was run: as §1

[13] = test system: T13, B. multivorans AU14371; assay: microbe, parasite or virus in culture; conditions: Burkholderia multivorans, AU14371
T13 construct: AU14371
How it was run: as §1

[14] = test system: T14, B. multivorans AU28069; assay: microbe, parasite or virus in culture; conditions: Burkholderia multivorans, AU28069
T14 construct: AU28069
How it was run: as §1

[15] = test system: T15, B. pyrrocinia AU1114; assay: microbe, parasite or virus in culture; conditions: Burkholderia pyrrocinia, AU1114
T15 construct: AU1114
How it was run: as §1

[16] = test system: T16, B. multivorans AU17534; assay: microbe, parasite or virus in culture; conditions: Burkholderia multivorans, AU17534
T16 construct: AU17534
How it was run: as §1

SMILES	MIC [1]	MIC [2]	MIC [3]	MIC [4]	MIC [5]	MIC [6]	MIC [7]	MIC [8]	MIC [9]	MIC [10]	MIC [11]	MIC [12]	MIC [13]	MIC [14]	MIC [15]	MIC [16]
C[C@H]1COc2c(N3CCN(C)CC3)c(F)cc3c(=O)c(C(=O)O)cn1c23 [levofloxacin]	> 32 µg/mL	8 µg/mL (≈ 22.1 µM)	> 32 µg/mL	2 µg/mL (≈ 5.53 µM)	2 µg/mL (≈ 5.53 µM)	4 µg/mL (≈ 11.1 µM)	4 µg/mL (≈ 11.1 µM)	2 µg/mL (≈ 5.53 µM)	4 µg/mL (≈ 11.1 µM)	2 µg/mL (≈ 5.53 µM)	16 µg/mL (≈ 44.3 µM)	2 µg/mL (≈ 5.53 µM)	2 µg/mL (≈ 5.53 µM)	4 µg/mL (≈ 11.1 µM)	> 32 µg/mL	
CO/N=C(\C(=O)N[C@@H]1C(=O)N2C(C(=O)[O-])=C(C[N+]3(C)CCCC3)CS[C@H]12)c1csc(N)n1 [cefepime]	> 32 µg/mL	16 µg/mL (≈ 33.3 µM)	> 32 µg/mL	16 µg/mL (≈ 33.3 µM)	16 µg/mL (≈ 33.3 µM)	16 µg/mL (≈ 33.3 µM)	32 µg/mL (≈ 66.6 µM)	32 µg/mL (≈ 66.6 µM)	> 32 µg/mL	32 µg/mL (≈ 66.6 µM)	32 µg/mL (≈ 66.6 µM)	8 µg/mL (≈ 16.6 µM)	8 µg/mL (≈ 16.6 µM)	8 µg/mL (≈ 16.6 µM)	8 µg/mL (≈ 16.6 µM)	> 32 µg/mL
C[C@@H](O)[C@H]1C(=O)N2C(C(=O)O)=C(S[C@@H]3CN[C@H](C(=O)N(C)C)C3)[C@H](C)[C@H]12 [meropenem]	32 µg/mL (≈ 83.4 µM)	4 µg/mL (≈ 10.4 µM)	8 µg/mL (≈ 20.9 µM)	4 µg/mL (≈ 10.4 µM)	2 µg/mL (≈ 5.22 µM)	4 µg/mL (≈ 10.4 µM)	4 µg/mL (≈ 10.4 µM)	4 µg/mL (≈ 10.4 µM)	8 µg/mL (≈ 20.9 µM)	2 µg/mL (≈ 5.22 µM)	8 µg/mL (≈ 20.9 µM)	4 µg/mL (≈ 10.4 µM)	4 µg/mL (≈ 10.4 µM)	4 µg/mL (≈ 10.4 µM)	4 µg/mL (≈ 10.4 µM)	16 µg/mL (≈ 41.7 µM)
